How the values were obtained:
Rattus norvegicus [1] = species: Rattus norvegicus; format: toxicity, organism-based, Sprague-Dawley; details: in vivo, po, 17 mg/kg, 24 h, route oral GAVAGE, dose level High, time 1 day, vehicle .5 % CMC
Description: DrugMatrix - Regimen: Single

Rattus norvegicus [2] = species: Rattus norvegicus; assay: DrugMatrix - Regimen: Daily Repeat; format: toxicity, organism-based, Sprague-Dawley; parameters: regimen Daily Repeat, gender Male, age 6-8 weeks; details: in vivo, po, 17 mg/kg, route oral GAVAGE, dose level High, vehicle .5 % CMC; for ABSOLUTE BASOPHIL / ABSOLUTE EOSINOPHIL / ABSOLUTE LYMPHOCYTE / ABSOLUTE MONOCYTE / ABSOLUTE SEGMENTED NEUTROPHIL / BASOPHIL / EOSINOPHIL / ERYTHROCYTE COUNT / HEMATOCRIT / HEMOGLOBIN / LEUKOCYTE COUNT / LYMPHOCYTE / MEAN CORPUSCULAR HEMOGLOBIN / MEAN CORPUSCULAR HEMOGLOBIN CONCENTRATION / MONOCYTE / NEUTROPHIL / NUCLEATED RED BLOOD CELLS / PLATELET COUNT: tissue Blood; for ALANINE AMINOTRANSFERASE / ALBUMIN / ALKALINE PHOSPHATASE / ASPARTATE AMINOTRANSFERASE / BLOOD UREA NITROGEN / CARBON DIOXIDE / CHLORIDE / CHOLESTEROL / CREATININE / GLUCOSE / LACTATE DEHYDROGENASE / LIPASE / PHOSPHORUS / POTASSIUM / SODIUM / TOTAL BILIRUBIN / TOTAL PROTEIN / URIC ACID: tissue Plasma

## O=C(Nc1c(Cl)cncc1Cl)c1ccc(OC(F)F)c(OCC2CC2)c1 [ROFLUMILAST]
Rattus norvegicus [1]; tissue Blood
  ABSOLUTE EOSINOPHIL: 58.67 CELLS/uL
  ABSOLUTE LYMPHOCYTE: 7680 CELLS/uL
  ABSOLUTE MONOCYTE: 245.33 CELLS/uL
  ABSOLUTE SEGMENTED NEUTROPHIL: 416 CELLS/uL
  BASOPHIL: 0%
  EOSINOPHIL: 0.67%
  ERYTHROCYTE COUNT: 5.72 x10E6/uL
  HEMATOCRIT: 34.83%
  HEMOGLOBIN: 12.9 G/DL
  LEUKOCYTE COUNT: 8.4 x10E3/uL
  LYMPHOCYTE: 91.33%
  MEAN CORPUSCULAR HEMOGLOBIN: 22.67 pg
  MEAN CORPUSCULAR HEMOGLOBIN CONCENTRATION: 37.1 G/DL
  MONOCYTE: 3%
  NEUTROPHIL: 5%
  NUCLEATED RED BLOOD CELLS: 0 /100WBC
  PLATELET COUNT: 734 x10E3/uL
Rattus norvegicus [1]; tissue Plasma
  ALANINE AMINOTRANSFERASE: 52.33 u/L
  ALBUMIN: 4.07 G/DL
  ALKALINE PHOSPHATASE: 343 u/L
  ASPARTATE AMINOTRANSFERASE: 103 u/L
  BLOOD UREA NITROGEN: 16.33 mg/dL
  CARBON DIOXIDE: 32 mmol/L
  CHLORIDE: 103.33 MEQ/L
  CHOLESTEROL: 76.67 mg/dL
  CREATININE: 0.17 mg/dL
  GLUCOSE: 156.33 mg/dL
  LACTATE DEHYDROGENASE: 133.67 u/L
  LIPASE: 9.33 u/L
  PHOSPHORUS: 12.87 mg/dL
  POTASSIUM: 6.09 MEQ/L
  SODIUM: 148.53 MEQ/L
  TOTAL BILIRUBIN: 0.17 mg/dL
  TOTAL PROTEIN: 6.2 G/DL
  URIC ACID: 1.27 mg/dL
Rattus norvegicus [2]; 72 h, time 3 day
  ABSOLUTE BASOPHIL: 0 CELLS/uL
  ABSOLUTE EOSINOPHIL: 460.33 CELLS/uL
  ABSOLUTE LYMPHOCYTE: 8656.33 CELLS/uL
  ABSOLUTE MONOCYTE: 1347.33 CELLS/uL
  ABSOLUTE SEGMENTED NEUTROPHIL: 10002.67 CELLS/uL
  BASOPHIL: 0%
  EOSINOPHIL: 2.33%
  ERYTHROCYTE COUNT: 6.23 x10E6/uL
  HEMATOCRIT: 37.23%
  HEMOGLOBIN: 13.5 G/DL
  LEUKOCYTE COUNT: 20.47 x10E3/uL
  LYMPHOCYTE: 42.67%
  MEAN CORPUSCULAR HEMOGLOBIN: 21.7 pg
  MEAN CORPUSCULAR HEMOGLOBIN CONCENTRATION: 36.27 G/DL
  MONOCYTE: 6.33%
  NEUTROPHIL: 48.67%
  NUCLEATED RED BLOOD CELLS: 0 /100WBC
  PLATELET COUNT: 1131 x10E3/uL
  ALANINE AMINOTRANSFERASE: 18 u/L
  ALBUMIN: 3.07 G/DL
  ALKALINE PHOSPHATASE: 189.33 u/L
  ASPARTATE AMINOTRANSFERASE: 63 u/L
  BLOOD UREA NITROGEN: 17.33 mg/dL
  CARBON DIOXIDE: 28.33 mmol/L
  CHLORIDE: 97.33 MEQ/L
  CHOLESTEROL: 61 mg/dL
  CREATININE: 0.15 mg/dL
  GLUCOSE: 131.67 mg/dL
  LACTATE DEHYDROGENASE: 149.67 u/L
  LIPASE: 8.33 u/L
  PHOSPHORUS: 10.43 mg/dL
  POTASSIUM: 4.72 MEQ/L
  SODIUM: 144.73 MEQ/L
  TOTAL BILIRUBIN: 0.1 mg/dL
  TOTAL PROTEIN: 6.4 G/DL
  URIC ACID: 1.37 mg/dL
Rattus norvegicus [2]; 96 h, time 4 day
  ABSOLUTE BASOPHIL: 0 CELLS/uL
  ABSOLUTE EOSINOPHIL: 0 CELLS/uL
  ABSOLUTE LYMPHOCYTE: 3924 CELLS/uL
  ABSOLUTE MONOCYTE: 981 CELLS/uL
  ABSOLUTE SEGMENTED NEUTROPHIL: 16695 CELLS/uL
  BASOPHIL: 0%
  EOSINOPHIL: 0%
  ERYTHROCYTE COUNT: 6.21 x10E6/uL
  HEMATOCRIT: 36.1%
  HEMOGLOBIN: 13.4 G/DL
  LEUKOCYTE COUNT: 21.6 x10E3/uL
  LYMPHOCYTE: 18%
  MEAN CORPUSCULAR HEMOGLOBIN: 21.6 pg
  MEAN CORPUSCULAR HEMOGLOBIN CONCENTRATION: 37.15 G/DL
  MONOCYTE: 4.5%
  NEUTROPHIL: 77.5%
  NUCLEATED RED BLOOD CELLS: 0 /100WBC
  PLATELET COUNT: 1458.5 x10E3/uL
  ALANINE AMINOTRANSFERASE: 19 u/L
  ALBUMIN: 2.45 G/DL
  ALKALINE PHOSPHATASE: 153.5 u/L
  ASPARTATE AMINOTRANSFERASE: 51.5 u/L
  BLOOD UREA NITROGEN: 24 mg/dL
  CARBON DIOXIDE: 32 mmol/L
  CHLORIDE: 96.5 MEQ/L
  CHOLESTEROL: 50.5 mg/dL
  CREATININE: 0.16 mg/dL
  GLUCOSE: 112.5 mg/dL
  LACTATE DEHYDROGENASE: 173 u/L
  LIPASE: 7.5 u/L
  PHOSPHORUS: 10.1 mg/dL
  POTASSIUM: 5.21 MEQ/L
  SODIUM: 143.95 MEQ/L
  TOTAL BILIRUBIN: 0.15 mg/dL
  TOTAL PROTEIN: 6 G/DL
  URIC ACID: 1.7 mg/dL
Rattus norvegicus [2]; […], time 14 day
  ABSOLUTE BASOPHIL: 0 CELLS/uL
  ABSOLUTE EOSINOPHIL: 0 CELLS/uL
  ABSOLUTE LYMPHOCYTE: 3828.67 CELLS/uL
  ABSOLUTE MONOCYTE: 852.67 CELLS/uL
  ABSOLUTE SEGMENTED NEUTROPHIL: 8985.33 CELLS/uL
  BASOPHIL: 0%
  EOSINOPHIL: 0%
  ERYTHROCYTE COUNT: 7.38 x10E6/uL
  HEMATOCRIT: 41.2%
  HEMOGLOBIN: 14.73 G/DL
  LEUKOCYTE COUNT: 13.67 x10E3/uL
  LYMPHOCYTE: 26%
  MEAN CORPUSCULAR HEMOGLOBIN: 20 pg
  MEAN CORPUSCULAR HEMOGLOBIN CONCENTRATION: 35.83 G/DL
  MONOCYTE: 6.33%
  NEUTROPHIL: 67.67%
  NUCLEATED RED BLOOD CELLS: 0 /100WBC
  PLATELET COUNT: 2047.33 x10E3/uL
  ALANINE AMINOTRANSFERASE: 33 u/L
  ALBUMIN: 3.1 G/DL
  ALKALINE PHOSPHATASE: 109 u/L
  ASPARTATE AMINOTRANSFERASE: 103.67 u/L
  BLOOD UREA NITROGEN: 25 mg/dL
  CARBON DIOXIDE: 30 mmol/L
  CHLORIDE: 97.5 MEQ/L
  CHOLESTEROL: 42.5 mg/dL
  CREATININE: 0.19 mg/dL
  GLUCOSE: 128 mg/dL
  LACTATE DEHYDROGENASE: 569 u/L
  LIPASE: 10 u/L
  PHOSPHORUS: 9.15 mg/dL
  POTASSIUM: 5.72 MEQ/L
  SODIUM: 142.95 MEQ/L
  TOTAL BILIRUBIN: 0.1 mg/dL
  TOTAL PROTEIN: 6.25 G/DL
  URIC ACID: 1.7 mg/dL
